In patent publication US8183279B2, “1,3-dihydroisoindole derivatives” (Merck Patent Gesellschaft Mit Beschrankter Haftung, priority 2007, dated 2012):

Molecular target: T1, Recombinant human HSP90α (Homo sapiens, UniProt P07900)
T1 construct: host or cells: E. coli
Assay: HSP90 inhibition, [3H]17AAG radioligand filter binding test
Conditions: competition with 0.08 μM [3H]17AAG, HSP90 1.5 μg/assay, 22° C., 30 min
Excerpt: The binding of geldanamycin or 17-allylamino-17-demethoxygeldanamycin (17AAG) to HSP90 and competitive inhibition thereof can be utilised in order to determine the inhibitory activity of the compounds according to the invention (Carreras et al. 2003, Chiosis et al. 2002).
In the specific case, a radioligand filter binding test is used. The radioligand used here is tritium-labelled 17-allylaminogeldanamycin,
[3H]17AAG. This filter binding test allows a targeted search for inhibitors which interfere with the ATP binding site.
Recombinant human HSP90α(E. coli expressed, 95% purity);
[3H]17AAG (17-allylaminogeldanamycin, [allylamino-2,3-^3H. Specific activity: 1.11×10^12 Bq/mmol (Moravek, MT-1717);
HEPES filter buffer (50 mM HEPES, pH 7.0, 5 mM MgCl2, BSA 0.01%) Multiscreen FB (1 μm) filter plate (Millipore, MAFBNOB 50).
The 96-well microtitre filter plates are firstly irrigated and coated with 0.1% of polyethylenimine.
The test is carried out under the following conditions:
Reaction temperature 22° C.
Reaction time: 30 min., shaking at 800 rpm
50 mM HEPES HCl, pH 7.0, 5 mM MgCl2, 0.01% (w/v) of BSA
At the end of the reaction, the supernatant in the filter plate is removed by suction with the aid of a vacuum manifold (Multiscreen Separation System, Millipore), and the filter is washed twice.
The filter plates are then measured in a beta counter (Microbeta, Wallac) with scintillator (Microscint 20, Packard).
“% of control” is determined from the “counts per minutes” values, and the IC-50 value of a compound is calculated therefrom.

Structure (SMILES) | IC50 [nM]
CCCCN(C)C(=O)c1cc(C(=O)N2Cc3ccc(O)cc3C2)c(O)cc1O [Compound A1, N-butyl-2,4-dihydroxy-5-(5-hydroxy-1,3-dihydroisoindole-2-carbonyl)-N-methylbenzamide] | 10 to 1000
CCCCN(C)C(=O)c1cc(C(=O)N2Cc3ccccc3C2)c(O)cc1O [Compound A2, N-butyl-2,4-dihydroxy-5-(1,3-dihydroisoindole-2-carbonyl)-N-methylbenzamide] | 10 to 1000
CCCCN(C)C(=O)c1cc(C(=O)N2Cc3ccc(OCCN(C)C)cc3C2)c(O)cc1O [Compound A3, N-butyl-5-[5-(2-dimethylaminoethoxy)-1,3-dihydroisoindole-2-carbonyl]-2,4-dihydroxy-N-methylbenzamide] | 10 to 1000
CCCCN(C)C(=O)c1cc(C(=O)N2Cc3ccc(OCCN4CCOCC4)cc3C2)c(O)cc1O [Compound A6] | 10 to 1000
CCCCN(C)C(=O)c1cc(C(=O)N2Cc3ccc(OCCN4CCNCC4)cc3C2)c(O)cc1O [Compound A7] | 10 to 1000
CCCCN(C)C(=O)c1cc(C(=O)N2Cc3ccc(OCCN4CCCCC4)cc3C2)c(O)cc1O [Compound A8] | 10 to 1000
CCCCN(C)C(=O)c1cc(C(=O)N2Cc3ccc(OCC(N)=O)cc3C2)c(O)cc1O [Compound A32, N-Butyl-5-(5-carbamoylmethoxy-1,3-dihydroisoindole-2-carbonyl)-2,4-dihydroxy-N-methylbenzamide] | 10 to 1000
CCCCN(C)C(=O)c1cc(C(=O)N2Cc3ccc(OCCCC#N)cc3C2)c(O)cc1O [Compound A33, N-Butyl-5-[5-(3-cyanopropoxy)-1,3-dihydroisoindole-2-carbonyl]-2,4-dihydroxy-N-methylbenzamide] | 10 to 1000
CCCCN(C)C(=O)c1cc(C(=O)N2Cc3ccc(OCCO)cc3C2)c(O)cc1O [Compound A34, N-Butyl-2,4-dihydroxy-5-[5-(2-hydroxyethoxy)-1,3-dihydroisoindole-2-carbonyl]-N-methylbenzamide] | 10 to 1000
CCCCN(C)C(=O)c1cc(C(=O)N2Cc3ccc(OCCNC)cc3C2)c(O)cc1O [Compound A35, N-Butyl-2,4-dihydroxy-N-methyl-5-[5-(2-methylaminoethoxy)-1,3-dihydroisoindole-2-carbonyl]benzamide] | 10 to 1000
CCCCN(C)C(=O)c1cc(C(=O)N2Cc3ccc(-c4ccccc4)cc3C2)c(O)cc1O [Compound A38, N-Butyl-2,4-dihydroxy-N-methyl-5-(5-phenyl-1,3-dihydroisoindole-2-carbonyl)benzamide] | 10 to 1000
CCCCN(C)C(=O)c1cc(C(=O)N2Cc3ccc(C(=O)OC)cc3C2)c(O)cc1O [Compound A39, Methyl 2-[5-(butylmethylcarbamoyl)-2,4-dihydroxybenzoyl]-2,3-dihydro-1H-isoindole-5-carboxylate] | 10 to 1000
CCCCN(C)C(=O)c1cc(C(=O)N2Cc3ccc(OCCN(C)CC)cc3C2)c(O)cc1O [Compound A40, N-Butyl-5-{5-[2-(ethylmethylamino)ethoxy]-1,3-dihydroisoindole-2-carbonyl}-2,4-dihydroxy-N-methylbenzamide] | 10 to 1000
CCCCN(C)C(=O)c1cc(C(=O)N2Cc3ccc(C(=O)N(C)C)cc3C2)c(O)cc1O [Compound A41, N,N'-Dimethyl-2-[5-(butylmethylcarbamoyl)-2,4-dihydroxybenzoyl]-2,3-dihydro-1H-isoindole-5-carboxamide] | 10 to 1000

Now from value to molecule:

IC50 [nM] | Structure (SMILES)
10 to 1000 | CCCCN(C)C(=O)c1cc(C(=O)N2Cc3ccc(C(N)=O)cc3C2)c(O)cc1O [Compound A42]
10 to 1000 | Cc1ccc(CN(C)C(=O)c2cc(C(=O)N3Cc4ccc(OCCN(C)C)cc4C3)c(O)cc2O)s1 [Compound A43, 5-[5-(2-Dimethylaminoethoxy)-1,3-dihydroisoindole-2-carbonyl]-2,4-dihydroxy-N-methyl-N-(5-methylthiophen-2-ylmethyl)benzamide]
10 to 1000 | CN(C)CCOc1ccc2c(c1)CN(C(=O)c1cc(C(=O)N(C)Cc3ccco3)c(O)cc1O)C2 [Compound A44, 5-[5-(2-Dimethylaminoethoxy)-1,3-dihydroisoindole-2-carbonyl]-N-furan-2-ylmethyl-2,4-dihydroxy-N-methylbenzamide]
10 to 1000 | CN(C)CCOc1ccc2c(c1)CN(C(=O)c1cc(C(=O)N(C)Cc3ccccc3)c(O)cc1O)C2 [Compound A45, N-Benzyl-5-[5-(2-dimethylaminoethoxy)-1,3-dihydroisoindole-2-carbonyl]-2,4-dihydroxy-N-methylbenzamide]
10 to 1000 | CN(C)CCOc1ccc2c(c1)CN(C(=O)c1cc(C(=O)N3Cc4ccccc4C3)c(O)cc1O)C2 [Compound A46, [5-(1,3-Dihydroisoindole-2-carbonyl)-2,4-dihydroxyphenyl]-[5-(2-dimethylaminoethoxy)-1,3-dihydroisoindol-2-yl]methanone]
10 to 1000 | CCCCN(C)C(=O)c1cc(C(=O)N2Cc3ccc(OCCCNC)cc3C2)c(O)cc1O [Compound A47, N-Butyl-2,4-dihydroxy-N-methyl-5-[5-(3-methylaminopropoxy)-1,3-dihydroisoindole-2-carbonyl]benzamide]
10 to 1000 | CNCCOc1ccc2c(c1)CN(C(=O)c1cc(C(=O)N(C)Cc3ccc(C)s3)c(O)cc1O)C2 [Compound A48, 2,4-Dihydroxy-N-methyl-5-[5-(2-methylaminoethoxy)-1,3-dihydroisoindole-2-carbonyl]-N-(5-methylthiophen-2-ylmethyl)benzamide]
10 to 1000 | CNCCOc1ccc2c(c1)CN(C(=O)c1cc(C(=O)N(C)Cc3ccco3)c(O)cc1O)C2 [Compound A49, N-Furan-2-ylmethyl-2,4-dihydroxy-N-methyl-5-[5-(2-methylaminoethoxy)-1,3-dihydroisoindole-2-carbonyl]benzamide]
